Experimental data: publication PMC3752336 (Neurochemical research, 2008)

Biological target: human M3 muscarinic acetylcholine receptor (hM3) (Homo sapiens, UniProt P20309)
Experiment: inhibition of [3H]NMS binding, intact CHO cells
Assay type: cell-based

Sequence of human M3 muscarinic acetylcholine receptor (hM3) (P20309 whole entry): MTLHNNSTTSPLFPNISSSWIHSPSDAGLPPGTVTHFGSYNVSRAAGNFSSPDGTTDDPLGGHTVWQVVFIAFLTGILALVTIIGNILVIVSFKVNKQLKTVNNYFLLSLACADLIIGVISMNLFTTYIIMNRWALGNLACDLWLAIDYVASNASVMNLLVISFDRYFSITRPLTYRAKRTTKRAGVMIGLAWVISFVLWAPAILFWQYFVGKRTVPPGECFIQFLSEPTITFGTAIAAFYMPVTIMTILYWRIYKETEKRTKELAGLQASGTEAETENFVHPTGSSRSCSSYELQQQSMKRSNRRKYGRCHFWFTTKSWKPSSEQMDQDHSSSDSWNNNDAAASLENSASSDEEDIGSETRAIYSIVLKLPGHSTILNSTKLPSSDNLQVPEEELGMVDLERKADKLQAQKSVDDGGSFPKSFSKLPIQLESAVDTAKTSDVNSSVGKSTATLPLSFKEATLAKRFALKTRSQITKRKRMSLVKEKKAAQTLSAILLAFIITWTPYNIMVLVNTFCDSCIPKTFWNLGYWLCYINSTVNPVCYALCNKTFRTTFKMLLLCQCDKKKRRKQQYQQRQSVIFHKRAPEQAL

For `CCCCCCOc1nsnc1C1=CCCN(C)C1` [Xanomeline], the IC50 was 79.4 nM.
